As a reminder, the IC50 is the concentration needed to halve the response being measured.

Structures are written as SMILES.

From patent US6380230B1, “Carboxamidothiazole derivatives, preparation, pharmaceutical compositions containing them” (Sanofi-Synthelabo, priority 1997, dated 2002) come the findings set out here.

For assay [1], the target named is T1, human CCK-B receptor (Homo sapiens, UniProt P32239).
T1 sequence (P32239 1-447): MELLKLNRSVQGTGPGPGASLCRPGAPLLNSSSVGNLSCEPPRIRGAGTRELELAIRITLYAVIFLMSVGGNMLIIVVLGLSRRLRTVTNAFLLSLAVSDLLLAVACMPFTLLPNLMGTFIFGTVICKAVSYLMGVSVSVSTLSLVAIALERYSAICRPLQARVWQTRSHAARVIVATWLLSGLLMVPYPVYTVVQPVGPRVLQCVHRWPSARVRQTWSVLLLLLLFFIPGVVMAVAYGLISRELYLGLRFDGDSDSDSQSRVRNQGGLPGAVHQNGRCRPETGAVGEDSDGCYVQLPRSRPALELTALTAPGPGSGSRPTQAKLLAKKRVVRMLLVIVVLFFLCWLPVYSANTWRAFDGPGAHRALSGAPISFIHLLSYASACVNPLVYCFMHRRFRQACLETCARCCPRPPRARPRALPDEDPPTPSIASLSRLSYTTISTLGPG
Description: in vitro binding to the human CCK-B receptor. Conditions: read-out: affinity for the human CCK-B receptor (IC50).

Assay [2] addresses T2, human CCK-A receptor (Homo sapiens, UniProt P32238).
T2 construct: expressed in transfected cells; host or cells: 3T3 cells
T2 sequence (P32238 1-428): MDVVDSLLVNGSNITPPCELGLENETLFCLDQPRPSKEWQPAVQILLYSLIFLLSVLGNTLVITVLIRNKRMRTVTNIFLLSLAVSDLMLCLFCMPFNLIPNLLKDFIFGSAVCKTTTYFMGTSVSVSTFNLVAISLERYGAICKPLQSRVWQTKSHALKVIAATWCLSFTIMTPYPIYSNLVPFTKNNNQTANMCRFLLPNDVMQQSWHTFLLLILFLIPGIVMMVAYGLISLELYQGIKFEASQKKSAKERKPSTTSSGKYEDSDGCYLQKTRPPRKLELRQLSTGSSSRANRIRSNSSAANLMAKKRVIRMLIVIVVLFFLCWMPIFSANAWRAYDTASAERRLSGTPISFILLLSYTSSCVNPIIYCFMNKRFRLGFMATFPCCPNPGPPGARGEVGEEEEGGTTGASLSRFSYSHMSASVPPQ
Description: displacement of [125I]-CCK from 3T3 cells expressing the human CCK-A recombinant receptor. The format is binding. Conditions: read-out: affinity for the human CCK-A receptor (IC50).

For assay [3], the target named is T2, human CCK-A receptor. Description: mobilization of intracellular calcium ([Ca++]i, Fura-2) in 3T3 cells expressing the human CCK-A receptor. The format is cell-based. The procedure: The calcium concentration [Ca^++]i is evaluated with Fura-2 as fluorescent probe, by the double excitation wavelength method. The ratio of the fluorescence emitted at two wavelengths gives the concentration of [Ca^++]i after calibration (Grynkiewicz G. et al., J. Biol. Chem., 1985, 260, 3440-3450).
A general note: A change in cytosolic calcium serves as a functional read-out for many receptors and channels.

Assay [4] deals with Female Swiss albino CD1 mice. Description: gastric drainage (charcoal meal) in mice, intraperitoneal administration. The class given is in vivo. To be noted: intraperitoneally. The procedure:
The compounds of the present invention were also studied in vivo, by evaluating their capacity to block gastric drainage in mice.
A study of the agonist effect of the compounds on gastric drainage was carried out as follows. Female Swiss albino CD1 mice (20-25 g) are placed on a solid fast for 18 hours. On the day of the experiment, the products (as a suspension in 1% carboxymethyl cellulose solution or in 0.6% methylcellulose solution) or the corresponding vehicle are administered intraperitoneally, 30 minutes before administering a charcoal meal (0.3 ml per mouse of a suspension in water of 10% charcoal powder, 5% gum arabic and 1% carboxymethyl cellulose or 0.6% methyl cellulose). The mice are sacrificed five minutes later by cervical dislocation, and gastric drainage is defined as the presence of charcoal in the intestine beyond the pyloric sphincter (Eur. J. Pharmacol., 1993, 232, 13-19).

On to `COc1cc(-c2nc(NC(=O)c3cc4cc(C)cc(C)c4n3CC(=O)O)sc2CCC2CCCCC2)c(OC)cc1Cl.O=C(O)C(F)(F)F` [Example 5, 2-(4-(4-Chloro-2,5-dimethoxyphenyl)-5-(2-cyclohexylethyl)-2-thiazolylcarbamoyl)-5,7-dimethyl-1-indoleacetic acid trifluoroacetic acid.], for which, in assay [1], the IC50 worked out at 162 nM. The IC50 in assay [2] was determined as 0.56 nM. Moreover, in assay [3] (increase to the same level as CCK itself), the “agonist behaviour on intracellular calcium relative to CCK” value is recorded as “total agonist”. For the same compound, the EC50 in assay [3] (read-out: EC50 (effective concentration which induces 50% of the effect of CCK) for increase in intracellular calcium concentration, 3T3 cells expressing human CCK-A receptor) came to 1.27 nM. For the same compound, in assay [4], the “ED50 on gastric drainage” value amounted to 1.9 µg/kg and the “effect on gastric drainage” value was “completely inhibits gastric drainage”.
